What was measured:
human recombinant Btk = human recombinant Btk (Homo sapiens, UniProt Q06187); assay: Btk Enzymatic Activity Assay (Caliper-based kinase assay); assay type: biochemical; details: human recombinant Btk 2 nM, ATP 40 uM, peptide substrate 1 uM, room temperature, 3 h
Description: A Caliper-based kinase assay (Caliper Life Sciences, Hopkinton, Mass.) was used to measure inhibition of Btk kinase activity of a compound of Formula (I). […] The reaction was then terminated with EDTA, final concentration 20 mM and the phosphorylated reaction product was quantified on a Caliper Desktop Profiler (Caliper LabChip 3000). […] This value is presented as the IC50.

protein target = assay: Reversibility of Binding (compound in solution before and after denaturation or digestion of the target, HPLC-MS/MS); details: for Compound in solution in the denatured or digested state?: after denaturation with 5 M guanidine hydrochloride and digestion with trypsin; for compound in solution following perturbation of the target: perturbed state; for Compound in solution in the native state?: target in excess over compound
Description: The following approach was developed to differentiate compounds that form irreversible bonds with their targets, such as acrylamide compounds, from compound that bind reversibly. […] The reactions were then treated with perturbations including both denaturation with 5 M guanidine hydrochloride and digestion with trypsin, disrupting proper folding of the target. […] The concentration of compound in solution was assessed both preceding and following perturbation using high performance liquid chromatography (HPLC) coupled to tandem mass spectrometry.

[1] = Determination of Bioavailability, stomach (oral gavage) v. intraduodenal administration; assay type: in vivo, Rats; details: rat; for % increase: ID versus PO; for AUC / Cmax / bioavailability: plasma
Description: Rats with surgically implanted intra-duodenal catheters were obtained commercially. Rats were dosed with solution or suspension of (S)-2-(2-((4-amino-3-(2-fluoro-4-phenoxyphenyl)-1H-pyrazolo[3,4-d]pyrimidin-1-yl)methyl)pyrrolidine-1-carbonyl)-4-methyl-4-morpholinopent-2-enenitrile; via bolus injection: oral gavage was done to measure exposure after oral dosing, or dosing via administration through the intra-duodenal catheter to measure exposure bypassing the stomach. […] Blood was withdrawn at time points out to 24 hours and compound quantitated via LC/MS/MS to obtain plasma concentrations. PK parameters were calculated via commercially available software and measures of exposure were used to assess differences in dosing routes. The table below summarizes exposures as measured by area under the curve (AUC), concentration at its maximum (Cmax), and bioavailability.

[2] = 20 mg/kg, ID (intra-duodenal), 20 mg/kg in 15% cyclodextrin, Experiment 1
[3] = 20 mg/kg, ID (intra-duodenal), 20 mg/kg in 15% cyclodextrin, Experiment 2
[4] = 100 mg/kg, ID 100 mg/kg, 0.5% xanthum gum suspension
[5] = po, 20 mg/kg, 20 mg/kg in 15% cyclodextrin, Experiment 1
[6] = po, 20 mg/kg, 20 mg/kg in 15% cyclodextrin, Experiment 2
[7] = po, 100 mg/kg, PO 100 mg/kg, 0.5% xanthum gum suspension

Sequence of human recombinant Btk (Q06187 whole entry): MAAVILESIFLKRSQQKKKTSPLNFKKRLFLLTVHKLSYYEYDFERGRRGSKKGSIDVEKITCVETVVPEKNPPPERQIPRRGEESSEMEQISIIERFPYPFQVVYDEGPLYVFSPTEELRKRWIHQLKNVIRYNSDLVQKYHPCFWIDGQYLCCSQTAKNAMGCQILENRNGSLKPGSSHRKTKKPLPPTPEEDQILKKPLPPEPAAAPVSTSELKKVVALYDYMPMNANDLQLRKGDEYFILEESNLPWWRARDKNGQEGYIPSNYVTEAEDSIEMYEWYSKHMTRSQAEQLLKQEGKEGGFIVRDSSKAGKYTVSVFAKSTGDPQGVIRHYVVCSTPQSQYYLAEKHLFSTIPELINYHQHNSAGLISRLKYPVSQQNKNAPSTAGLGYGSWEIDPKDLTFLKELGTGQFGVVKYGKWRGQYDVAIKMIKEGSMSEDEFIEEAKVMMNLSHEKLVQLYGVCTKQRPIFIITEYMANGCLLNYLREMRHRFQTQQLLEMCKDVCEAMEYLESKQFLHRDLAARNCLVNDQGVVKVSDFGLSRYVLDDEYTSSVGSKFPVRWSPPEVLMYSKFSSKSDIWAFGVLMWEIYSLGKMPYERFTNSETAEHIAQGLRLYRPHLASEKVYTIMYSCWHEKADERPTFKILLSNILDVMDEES

N#CC(=CC1CC1)C(=O)N1CCCC1Cn1nc(-c2ccc(Oc3ccccc3)cc2)c2c(N)ncnc21 (stereo not shown) [Cpd 2, 2-(2-((4-amino-3-(4-phenoxyphenyl)-1H-pyrazolo[3,4-d]pyrimidin-1-yl)methyl)pyrrolidine-1-carbonyl)-3-cyclopropylacrylonitrile]
IC50 (human recombinant Btk): 3.7 nM

COc1cc(-c2nn(CC3CCCN3C(=O)C(C#N)=CC3CC3)c3ncnc(N)c23)ccc1Oc1ccc(Cl)c(Cl)c1 (stereo not shown) [Cpd 5]
IC50 (human recombinant Btk): 1 nM

CC(C)(C)C=C(C#N)C(=O)N1CCC(n2nc(-c3ccc(Oc4ccccc4)cc3)c3c(N)ncnc32)CC1 [Cpd 8, 2-(4-(4-amino-3-(4-phenoxyphenyl)-1H-pyrazolo[3,4-d]pyrimidin-1-yl)piperidine-1-carbonyl)-4,4-dimethylpent-2-enenitrile]
IC50 (human recombinant Btk): 130 nM

CC(C)(C)C=C(C#N)C(=O)N1CCCC1Cn1nc(-c2ccc(Oc3ccccc3)cc2)c2c(N)ncnc21 (stereo not shown) [Cpd 10, 2-(2-((4-amino-3-(4-phenoxyphenyl)-1H-pyrazolo[3,4-d]pyrimidin-1-yl)methyl)pyrrolidine-1-carbonyl)-4,4-dimethylpent-2-enenitrile]
IC50 (human recombinant Btk): 5.4 nM

N#CC(=CC1CC1)C(=O)N1CCC[C@@H]1Cn1nc(-c2ccc(Oc3ccccc3)cc2F)c2c(N)ncnc21 [Cpd 27A, (R)-2-(2-((4-amino-3-(2-fluoro-4-phenoxyphenyl)-1H-pyrazolo[3,4-d]pyrimidin-1-yl)methyl)pyrrolidine-1-carbonyl)-3-cyclopropylacrylonitrile]
Compound in solution in the denatured or digested state? (protein target): yes
compound in solution following perturbation of the target (protein target): returned to solution
Compound in solution in the native state? (protein target; before perturbation): no

N#CC(=CC1CC1)C(=O)N1CCC[C@H]1Cn1nc(-c2ccc(Oc3c(F)cccc3F)cc2F)c2c(N)ncnc21 [Cpd 44B, (S)-2-(2-((4-amino-3-(2-fluoro-4-(2,6-difluorophenoxy)phenyl)-1H-pyrazolo[3,4-d]pyrimidin-1-yl)methyl)pyrrolidine-1-carbonyl)-3-cyclopropylacylonitrile]
IC50 (human recombinant Btk): 3 nM

CNC(C)(C)C=C(C#N)C(=O)N1CCC[C@@H]1Cn1nc(C2(Oc3ccccc3)C=CC=CC2F)c2c(N)ncnc21 (stereo partly drawn) [Cpd 83A, (R)-2-(2-((4-amino-3-(2-fluoro-1-phenoxyphenyl)-1H-pyrazolo[3,4-d]pyrimidin-1-yl)methyl)pyrrolidine-1-carbonyl)-4-methyl-4-(methylamino)pent-2-enenitrile]
IC50 (human recombinant Btk): 1.4 nM

N#CC(=CC1(N)CC1)C(=O)N1CCC[C@@H]1Cn1nc(-c2ccc(Oc3ccccc3)cc2F)c2c(N)ncnc21 [Cpd 90A, (R)-2-(2-((4-amino-3-(2-fluoro-4-phenoxyphenyl)-1H-pyrazolo[3,4-d]pyrimidin-1-yl)methyl)pyrrolidine-1-carbonyl)-3-(1-aminocyclopropyl)acrylonitrile]
IC50 (human recombinant Btk): 52 nM

CC(C)(C=C(C#N)C(=O)N1CCC[C@H]1Cn1nc(-c2ccc(Oc3ccccc3)cc2F)c2c(N)ncnc21)N1CCOCC1 [Cpd 95B, (S)-2-(2-((4-amino-3-(2-fluoro-4-phenoxyphenyl)-1H-pyrazolo[3,4-d]pyrimidin-1-yl)methyl)pyrrolidine-1-carbonyl)-4-methyl-4-morpholinopent-2-enenitrile]
% increase ([1]; 20 mg/kg in 15% cyclodextrin, Experiment 1): 409%
% increase ([1]; 20 mg/kg in 15% cyclodextrin, Experiment 2): 232%
% increase ([1]; 100 mg/kg, 0.5% xanthum gum suspension): 220%
AUC [1, 2]: 630 ng·h/mL
Cmax [1, 2]: 1400 ng/mL
AUC [1, 3]: 1500 ng·h/mL
Cmax [1, 3]: 1650 ng/mL
bioavailability [1, 2]: 27%
bioavailability [1, 3]: 64.6%
AUC [1, 4]: 1900 ng·h/mL
Cmax [1, 4]: 870 ng/mL
bioavailability [1, 4]: 16.3%
AUC [1, 5]: 154 ng·h/mL
Cmax [1, 5]: 145 ng/mL
AUC [1, 6]: 647 ng·h/mL
Cmax [1, 6]: 406 ng/mL
bioavailability [1, 5]: 6.6%
bioavailability [1, 6]: 27.8%
AUC [1, 7]: 858 ng·h/mL
Cmax [1, 7]: 149 ng/mL
bioavailability [1, 7]: 7.4%

CC(C)C=C(C#N)C(=O)N1CCC[C@H]1Cn1nc(-c2ccc(Oc3cccc(F)c3F)cc2F)c2c(N)ncnc21 [Cpd 102B, (S)-2-(2-((4-amino-3-(4-(2,3-difluorophenoxy)-2-fluorophenyl)-1H-pyrazolo[3,4-d]pyrimidin-1-yl)methyl)pyrrolidine-1-carbonyl)-4-methylpent-2-enenitrile]
IC50 (human recombinant Btk): 6 nM

CNC(C)(C)C=C(C#N)C(=O)N1CCC[C@H]1Cn1nc(-c2ccc(Oc3cccc(F)c3F)cc2F)c2c(N)ncnc21 [Cpd 105B]
IC50 (human recombinant Btk): 25.5 nM

CC(C)(C)C=C(C#N)C(=O)N1CCC[C@H]1Cn1cc(-c2ccc(Oc3cccc(F)c3F)cc2)c2c(N)ncnc21 [Cpd 173B, (S)-2-(2-((4-amino-5-(4-(2,3-difluorophenoxy)phenyl)-7H-pyrrolo[2,3-d]pyrimidin-7-yl)methyl)pyrrolidine-1-carbonyl)-4,4-dimethylpent-2-enenitrile]
IC50 (human recombinant Btk): 34 nM

C[C@@H](Cn1nc(-c2ccc(Oc3ccccc3)cc2F)c2c(N)ncnc21)NC(=O)C(C#N)=CC(C)(C)N [Cpd 195, (S)-4-amino-N-(1-(4-amino-3-(2-fluoro-4-phenoxyphenyl)-1H-pyrazolo[3,4-d]-pyrimidin-1-yl)propan-2-yl)-2-cyano-4-methylpent-2-enamide]
IC50 (human recombinant Btk): 6 nM

C=CC(=O)N1CCC[C@@H](n2nc(-c3ccc(Oc4ccccc4)cc3)c3c(N)ncnc32)C1 [reference compound]
Compound in solution in the denatured or digested state? (protein target): no
depletion of compound from solution in the native (folded) state (protein target; before perturbation): depleted from solution
compound in solution following perturbation of the target (protein target): depleted from solution
Compound in solution in the native state? (protein target; before perturbation): no

(S)-4-amino-2-(2-((4-amino-3-(4-(2,3-difluorophenoxy)-2-fluorophenyl)-1H-pyrazolo[3,4-d]pyrimidin-1-yl)methyl)pyrimidine-1-carbonyl)-4-methylpent-2-enenitrile [Cpd 104B]
IC50 (human recombinant Btk): 20 nM

From patent publication US20160045503A1, “FORMULATIONS CONTAINING REVERSIBLE COVALENT COMPOUNDS” (PRINCIPIA BIOPHARMA INC., priority 2012, published 2016)
